Reference: patent publication US7410965B2, “Delayed release pharmaceutical composition containing 1-dimethyl-amino-3-(3-methoxyphenyl)-2-methyl-pentan-3-ol” (Gruenenthal GmbH, priority 2002, dated 2008)
Marks after values point to notes of the source that are not given here.

System: female Sprague-Dawley rats
Test: Cystometry test system on conscious fresh rats
Assay type: in vivo, rat
Conditions: for BC Bladder Capacity, change compared to the baseline value / ICI Inter-Contraction Interval, change compared to the baseline value / TP Threshold Pressure, change compared to the baseline value: effect maximum; for effect on the bladder regulation (in words): cystometry, iv
Procedure: Cystometry investigations were carried out on fresh female Sprague-Dawley rats according to the method of Ishizuka et al. ((1997), Naunyn-Schmiedeberg's Arch. Pharmacol. 355: 787-793). Three days after implantation of bladder and venous catheters the animals were investigated in the conscious state while freely moving. The bladder catheter was connected to a pressure gauge and an injection pump. The animals were placed in metabolic cages that enabled the volume of urine to be measured. Physiological saline solution was infused (10 ml/hour) into the emptied bladder and the bladder pressure and volume of urine were continuously recorded. After a stabilisation phase a 20-minute phase was recorded that was characterised by normal, reproducible micturition cycles. The following parameters among others were measured: • threshold pressure TP, bladder pressure immediately before micturition, • bladder capacity BC, residual volume after prior micturition plus volume of infused solution during the filling phase, • intercontraction interval ICI, i.e. the time interval between consecutive micturition.
An increase in the threshold pressure (TP) indicates an important therapeutic effect in one of the medical conditions covered by the invention. Also, the intercontraction interval (ICI) is an important parameter for measuring the physiological effectiveness of a substance in the treatment of urinary incontinence, as is the bladder capacity (BC). In this connection, on account of the widely differing causes of the symptoms of these disease patterns it is not necessary to influence positively all three parameters in order for a medicament to be effective.
After recording three reproducible micturition cycles to provide a baseline value, the test substances (1 (1.0 mg/kg), 2 (0.1; 0.3 and 0.5 mg/kg) and 21 (0.5 mg/kg), in a vehicle comprising 0.9% NaCl were applied intravenously and the effect on the cystometric parameters was recorded at 90 to 120 minutes. In the effect maximum the mean value of 3 micturition cycles was determined and recorded as a percentage change compared to the baseline value (Table 1).

SMILES	BC Bladder Capacity, change compared to the baseline value (1.0 mg/kg iv)	ICI Inter-Contraction Interval, change compared to the baseline value (1.0 mg/kg iv)	TP Threshold Pressure, change compared to the baseline value (1.0 mg/kg iv)	BC Bladder Capacity, change compared to the baseline value (0.1 mg/kg iv)	ICI Inter-Contraction Interval, change compared to the baseline value (0.1 mg/kg iv)	TP Threshold Pressure, change compared to the baseline value (0.1 mg/kg iv)	BC Bladder Capacity, change compared to the baseline value (0.3 mg/kg iv)	ICI Inter-Contraction Interval, change compared to the baseline value (0.3 mg/kg iv)	TP Threshold Pressure, change compared to the baseline value (0.3 mg/kg iv)	BC Bladder Capacity, change compared to the baseline value (0.5 mg/kg iv)	ICI Inter-Contraction Interval, change compared to the baseline value (0.5 mg/kg iv)	TP Threshold Pressure, change compared to the baseline value (0.5 mg/kg iv)	effect on the bladder regulation (in words)
CC[C@](O)(c1cccc(OC)c1)[C@H](C)CN(C)C.Cl (racemic) [Compound 1, (2RS,3RS)-1-dimethylamino-3-(3-methoxyphenyl)-2-methylpentan-3-ol; hydrochloride]	+31%***	+42%	+94%**										
CC[C@](O)(c1cccc(OC)c1)[C@H](C)CN(C)C.Cl [Compound 2, (+)-(2R,3R)-1-dimethylamino-3-(3-methoxyphenyl)-2-methylpentan-3-ol; hydrochloride]				+7.8%	+15.6%	+28.5%**	+33%*	+28%*	+122%**	+20.6%*	+28.6%**	+77.5%**	very effective
CC[C@@](O)(c1cccc(OC)c1)[C@@H](C)CN(C)C.Cl [Compound 21, (−)-(2S,3S)-1-dimethylamino-3-(3-methoxyphenyl)-2-methylpentan-3-ol; hydrochloride]										+3%	+10%	−1.1%	does not exhibit such a marked effect
